Test results from PubChem BioAssay AID1963984 (Molecular Pharmacology Branch, DTP, NCI, 2024).

System: 233499-124-R-J3-PDC spheroids with HUVEC/MSC, viability
Test: Anticancer human tumor 233499-124-R-J3-PDC patient-derived colon adenocarcinoma cell line growth inhibition [PI3K]
Conditions: for IC50: curve of first compound; for viability, T/C: stronger effect = lower value
Method in brief: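 We assembled tumor spheroids that included a stromal compartment of HUVEC and MSCs, then exposed them to targeted agents alone and together with PI3K pathway inhibitors. Concentration series descended by half-log from clinically achievable Cmax levels. Viability served as the endpoint.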
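Further: spheroids exposed to agents for seven days before readout.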
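Wherever viability, T/C is given: percent viability relative to DMSO vehicle control taken as 100%.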

Molecule `CCCS(=O)(=O)Nc1ccc(F)c(C(=O)c2c[nH]c3ncc(-c4ccc(Cl)cc4)cc23)c1F` + COc1c(OCCCN2CCOCC2)ccc2c3n(c(=NC(=O)c4cnc(N)nc4)nc12)CCN3 has an IC50 (second compound 0.00316 µM) of 5 µM, an IC50 (second compound 0.01 µM) of 5.78 µM and an IC50 (second compound 0.0316 µM) of 5.03 µM. It also gave an IC50 (second compound 0.1 µM) of 3.41 µM, an IC50 (second compound 0.316 µM) of less than 0.0316 µM and an IC50 (second compound 1 µM) of less than 0.0316 µM. The viability, T/C (second compound 0.00316 µM, first compound 0.0316 µM) was 84%, the viability, T/C (second compound 0.00316 µM, first compound 0.1 µM) was 87.8% and the viability, T/C (second compound 0.00316 µM, first compound 0.316 µM) was 101%. The viability, T/C (second compound 0.00316 µM, first compound 1 µM) was 94.1%, the viability, T/C (second compound 0.00316 µM, first compound 3.16 µM) was 79.6% and the viability, T/C (second compound 0.00316 µM, first compound 10 µM) was 5.08%. For the same molecule, the viability, T/C (second compound 0.01 µM, first compound 0.0316 µM) was 88.4%, the viability, T/C (second compound 0.01 µM, first compound 0.1 µM) was 93.8% and the viability, T/C (second compound 0.01 µM, first compound 0.316 µM) was 88.9%. The viability, T/C (second compound 0.01 µM, first compound 1 µM) was 83%, the viability, T/C (second compound 0.01 µM, first compound 3.16 µM) was 90.1% and the viability, T/C (second compound 0.01 µM, first compound 10 µM) was 14.7%. For the same molecule, the viability, T/C (second compound 0.0316 µM, first compound 0.0316 µM) was 89.7%, the viability, T/C (second compound 0.0316 µM, first compound 0.1 µM) was 78.3% and the viability, T/C (second compound 0.0316 µM, first compound 0.316 µM) was 84.2%. The viability, T/C (second compound 0.0316 µM, first compound 1 µM) was 74.5%, the viability, T/C (second compound 0.0316 µM, first compound 3.16 µM) was 77.6% and the viability, T/C (second compound 0.0316 µM, first compound 10 µM) was 9.06%. It also gave a viability, T/C (second compound 0.1 µM, first compound 0.0316 µM) of 50.2%, a viability, T/C (second compound 0.1 µM, first compound 0.1 µM) of 56% and a viability, T/C (second compound 0.1 µM, first compound 0.316 µM) of 54.5%. It also gave a viability, T/C (second compound 0.1 µM, first compound 1 µM) of 51.5%, a viability, T/C (second compound 0.1 µM, first compound 3.16 µM) of 52.7% and a viability, T/C (second compound 0.1 µM, first compound 10 µM) of 12.5%. The viability, T/C (second compound 0.316 µM, first compound 0.0316 µM) was 33.7%, the viability, T/C (second compound 0.316 µM, first compound 0.1 µM) was 35.8% and the viability, T/C (second compound 0.316 µM, first compound 0.316 µM) was 38.2%. It also gave a viability, T/C (second compound 0.316 µM, first compound 1 µM) of 27.2%, a viability, T/C (second compound 0.316 µM, first compound 3.16 µM) of 23.6% and a viability, T/C (second compound 0.316 µM, first compound 10 µM) of 2.75%. For the same molecule, the viability, T/C (second compound 1 µM, first compound 0.0316 µM) was 10.5%, the viability, T/C (second compound 1 µM, first compound 0.1 µM) was 9.36% and the viability, T/C (second compound 1 µM, first compound 0.316 µM) was 6.83%. The viability, T/C (second compound 1 µM, first compound 1 µM) was 18.9%, the viability, T/C (second compound 1 µM, first compound 3.16 µM) was 8.57% and the viability, T/C (second compound 1 µM, first compound 10 µM) was 1.66%.
